Experiments:
[1] = molecular target: Recombinant full-length human IDO1 (Homo sapiens (Human), UniProt P14902); assay: IDO1 enzymatic assay (IDO inhibitory activity); assay type: biochemical; conditions: 2 nM enzyme, 5 μM L-tryptophan, pH6.5, 30 min pre-incubation, NFK quantified by LCMS; mean values if measured multiple times; read-out: hIDO activity (IC50 in nM)
Outline: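 N-His-tagged enzyme from E. coli at 2 nM in 37.5 mM phosphate pH6.5 with ascorbate, methylene blue, catalase; compounds 10 μM–0.5 nM, 0.6% DMSO, pre-incubated 30 min RT, then 5 μM L-tryptophan for 30 min RT. NFK quantified by LCMS against d5-tryptophan; IC50 from duplicate four-parameter fit, means where repeated.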

[2] = molecular target: Recombinant human TDO comprising amino acids 19-407 (Homo sapiens (Human), UniProt P48775); assay: TDO2 enzymatic assay (TDO inhibitory activity); assay type: biochemical; conditions: 15 nM enzyme, 200 μM L-tryptophan, pH7, 30 min pre-incubation, NFK quantified by LCMS; mean values if measured multiple times; read-out: hTDO activity (IC50 in nM)
Chain of Recombinant human TDO comprising amino acids 19-407 (P48775 19-406 limits assumed): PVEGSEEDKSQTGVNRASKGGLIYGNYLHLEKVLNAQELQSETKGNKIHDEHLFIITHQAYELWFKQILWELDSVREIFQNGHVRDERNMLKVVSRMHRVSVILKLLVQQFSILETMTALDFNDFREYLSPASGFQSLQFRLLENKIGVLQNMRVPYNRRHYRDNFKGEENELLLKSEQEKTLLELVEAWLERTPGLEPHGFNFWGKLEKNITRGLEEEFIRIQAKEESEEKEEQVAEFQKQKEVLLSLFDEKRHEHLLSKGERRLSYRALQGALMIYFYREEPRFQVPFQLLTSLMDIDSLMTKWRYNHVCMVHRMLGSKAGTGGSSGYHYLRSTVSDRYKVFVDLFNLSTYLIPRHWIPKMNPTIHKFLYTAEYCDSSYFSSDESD
Outline: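 His-tagged enzyme (15 nM, E. coli-expressed) in pH 7 phosphate buffer with ascorbate, catalase, BSA, Tween 20, 0.6% DMSO; 30 min RT pre-incubation with compound (10 μM–0.5 nM), then 200 μM L-tryptophan for 30 min RT. N′-formylkynurenine quantified by LCMS against deuterated tryptophan; IC50 by four-parameter fit, duplicates.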

Chain of Recombinant full-length human IDO1 (P14902 whole entry): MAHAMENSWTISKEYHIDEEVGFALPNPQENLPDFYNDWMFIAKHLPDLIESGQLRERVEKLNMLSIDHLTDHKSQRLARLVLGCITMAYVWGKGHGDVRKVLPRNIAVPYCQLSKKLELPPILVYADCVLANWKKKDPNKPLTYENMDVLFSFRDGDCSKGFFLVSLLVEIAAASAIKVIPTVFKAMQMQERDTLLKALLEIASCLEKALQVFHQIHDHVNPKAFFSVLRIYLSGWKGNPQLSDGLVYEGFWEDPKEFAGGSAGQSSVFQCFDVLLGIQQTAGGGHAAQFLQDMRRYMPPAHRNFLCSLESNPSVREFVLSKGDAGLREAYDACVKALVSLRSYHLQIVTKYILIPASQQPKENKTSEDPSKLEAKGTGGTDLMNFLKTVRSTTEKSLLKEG

| SMILES | IC50 [1] [nM] | IC50 [2] [nM] |
| --- | --- | --- |
| OC(c1cccs1)c1c(Cl)sc2cncn12 (racemic) [Example 15, rac-(2-Chloro-imidazo[5,1-b]thiazol-3-yl)-thiophen-2-yl-methanol] | 333 | 690 |
| OC(c1ccc(C(F)(F)F)cc1)c1c(C2CC2)sc2cncn12 (racemic) [Example 159, rac-(2-Cyclopropyl-imidazo[5,1-b]thiazol-3-yl)-(4-trifluoromethyl-phenyl)-methanol] | 305 | 2700 |
| CC1CCCCC1CC(O)c1c(C2CC2)sc2cncn12 (centres unmarked) [Example 31, 1-(2-Cyclopropyl-imidazo[5,1-b]thiazol-3-yl)-2-(2-methyl-cyclohexyl)-ethanol] | 45.2 | 411 |
| OC(c1c([C@@H]2C[C@H]2F)sc2cncn12)C1CCCCC1 (relative stereo) [Example 187, Cyclohexyl-[2-(trans-2-fluoro-cyclopropyl)-imidazo[5,1-b]thiazol-3-yl]-methanol] | 18.5 | 2260 |
| Cc1sc2cncn2c1C(O)C1CCCC1 (racemic) [Example 113, rac-Cyclopentyl-(2-methyl-imidazo[5,1-b]thiazol-3-yl)-methanol] | 149 | 206 |
| CCc1sc2cncn2c1C(O)CC1CCCCC1 (racemic) [Example 100, rac-2-Cyclohexyl-1-(2-ethyl-imidazo[5,1-b]thiazol-3-yl)-ethanol] | 6.63 | 299 |
| CC1CCC(CC(O)c2c(C3CC3)sc3cncn23)CC1 (racemic) [Example 49, rac-1-(2-Cyclopropyl-imidazo[5,1-b]thiazol-3-yl)-2-(4-methyl-cyclohexyl)-ethanol] | 50.3 | 638 |
| C=Cc1sc2cncn2c1C(O)C1CCCCC1 (racemic) [Example 68, rac-Cyclohexyl-(2-vinyl-imidazo[5,1-b]thiazol-3-yl)-methanol] | 14.4 | 29.3 |
| CC1CCCC(C(O)c2c(C3CC3)sc3cncn23)C1 (centres unmarked) [Example 27, (2-Cyclopropyl-imidazo[5,1-b]thiazol-3-yl)-(3-methyl-cyclohexyl)-methanol] | 17.2 | 384 |
| OC(c1ccccc1Cl)c1c(C2CC2)sc2cncn12 (racemic) [Example 164, rac-(2-Chloro-phenyl)-(2-cyclopropyl-imidazo[5,1-b]thiazol-3-yl)-methanol] | 1120 | 3020 |
| CC1(C)CCC(C(O)c2c(C(F)(F)F)sc3cncn23)CC1 (racemic) [Example 161, rac-(4,4-Dimethyl-cyclohexyl)-(2-trifluoromethyl-imidazo[5,1-b]thiazol-3-yl)-methanol] | 58.3 | 2770 |
| OC(c1ccc(Cl)cc1)c1c(C2CC2)sc2cncn12 (racemic) [Example 146, rac-(4-Chloro-phenyl)-(2-cyclopropyl-imidazo[5,1-b]thiazol-3-yl)-methanol] | 63.9 | 1090 |
| OC(CC1CCC(F)(F)CC1)c1c(C2CC2)sc2cncn12 (racemic) [Example 71, rac-1-(2-Cyclopropyl-imidazo[5,1-b]thiazol-3-yl)-2-(4,4-difluoro-cyclohexyl)-ethanol] | 28.5 | 263 |
| CC1(C)CCC(CC(O)c2c(C3CC3)sc3cncn23)CC1 (racemic) [Example 25, rac-1-(2-Cyclopropyl-imidazo[5,1-b]thiazol-3-yl)-2-(4,4-dimethyl-cyclohexyl)-ethanol] | 75.2 | 775 |
| COc1ccccc1C(O)c1c(C2CC2)sc2cncn12 (racemic) [Example 147, rac-(2-Cyclopropyl-imidazo[5,1-b]thiazol-3-yl)-(2-methoxy-phenyl)-methanol] | 1110 | 6800 |
| OC(c1ccc(F)cc1)c1c(C2CC2)sc2cncn12 (racemic) [Example 144, rac-(2-Cyclopropyl-imidazo[5,1-b]thiazol-3-yl)-(4-fluoro-phenyl)-methanol] | 32.8 | 475 |
| Cc1cc(-c2sc3cncn3c2C(O)C2CCCCC2)cs1 (racemic) [Example 153, rac-Cyclohexyl-[2-(5-methyl-thiophen-3-yl)-imidazo[5,1-b]thiazol-3-yl]-methanol] | 766 | 854 |
| CC(C)(C)c1sc2cncn2c1C(O)CC1CCCCC1 (racemic) [Example 12, rac-1-(2-(tert-Butyl)imidazo[5,1-b]thiazol-3-yl)-2-cyclohexylethan-1-ol] | 895 | 2130 |
| OC(c1c(C2CC2)sc2cncn12)C1CCC(c2ccccc2)CC1 (racemic) [Example 73, rac-(2-Cyclopropyl-imidazo[5,1-b]thiazol-3-yl)-(4-phenyl-cyclohexyl)-methanol] | 43.7 | 3110 |
| CC(C1CCCCC1)C(O)c1c(C2CC2)sc2cncn12 (centres unmarked) [Example 82, 2-Cyclohexyl-1-(2-cyclopropyl-imidazo[5,1-b]thiazol-3-yl)-propan-1-ol] | 87.3 | 822 |
| CC1(C)CCCCC1CC(O)c1c(C2CC2)sc2cncn12 (centres unmarked) [Example 76, 1-(2-Cycclopropyl-imidazo[5,1-b]thiazol-3-yl)-2-(2,2-dimethyl-cyclohexyl)-ethanol] | 147 | 295 |
| COc1cccc(C(O)c2c(C3CC3)sc3cncn23)c1 (racemic) [Example 56, rac-(2-Cyclopropyl-imidazo[5,1-b]thiazol-3-yl)-(3-methoxy-phenyl)-methanol] | 251 | 3310 |
| CCc1sc2cncn2c1C(O)C1CCCCC1 (racemic) [Example 96, rac-Cyclohexyl-(2-ethyl-imidazo[5,1-b]thiazol-3-yl)-methanol] | 10.5 | 39.9 |
| CC1CCC(C(O)c2c(C3CC3)sc3cncn23)CC1 (racemic) [Example 44, rac-(2-Cyclopropyl-imidazo[5,1-b]thiazol-3-yl)-(4-methyl-cyclohexyl)-methanol] | 15.8 | 383 |
| OC(c1cccc(C(F)(F)F)c1)c1c(C2CC2)sc2cncn12 (racemic) [Example 143, rac-(2-Cyclopropyl-imidazo[5,1-b]thiazol-3-yl)-(3-trifluoromethyl-phenyl)-methanol] | 587 | 765 |

Reference: patent US11267824B2, “Inhibitors of indoleamine 2,3-dioxygenase and/or tryptophan 2,3-dioxygenase” (IDORSIA PHARMACEUTICALS LTD, priority 2017, dated 2022)
